From PubChem BioAssay AID328 (DTP/NCI, 2004)
“And” between values parts separate entries of the source, which are not always exact repeats. Equal values may be shown once. Inconclusive results and toxic doses are left out.

Tested on: BDF1 mice, P388 leukemia ip, median survival T/C
Assay: NCI In Vivo Anticancer Drug Screen. Data for tumor model P388 Leukemia (intraperitoneal) in B6D2F1 (BDF1) mice
Settings: endpoint: median survival time, higher = longer survival
In short: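 Antitumour effect was judged in vivo: survival in drug-treated mice, normalised to that of vehicle-dosed controls, gives the reported T/C.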

[1] = dose: 200.0 mg/kg/injection, schedule: Q01DX001 (ip), vehicle: Klucel (hydroxypropylcellulose) (HPC)
[2] = dose: 400.0 mg/kg/injection, schedule: Q01DX001 (ip), vehicle: Klucel (hydroxypropylcellulose) (HPC)
[3] = dose: 50.0 mg/kg/injection, schedule: Q01DX009 (ip), vehicle: saline with Tween-80
[4] = dose: 100.0 mg/kg/injection, schedule: Q01DX009 (ip), vehicle: saline with Tween-80
[5] = dose: 200.0 mg/kg/injection, schedule: Q01DX009 (ip), vehicle: saline with Tween-80
[6] = dose: 100.0 mg/kg/injection, schedule: Q04DX003 (ip), vehicle: saline with Tween-80
[7] = dose: 200.0 mg/kg/injection, schedule: Q04DX003 (ip), vehicle: saline with Tween-80
[8] = dose: 400.0 mg/kg/injection, schedule: Q04DX003 (ip), vehicle: saline with Tween-80
[9] = dose: 100.0 mg/kg/injection, schedule: Q04DX003 (ip), vehicle: Klucel (hydroxypropylcellulose) (HPC)

O=[N+]([O-])c1ccc(/C=C/C=C\c2cccc(S(=O)(=O)F)c2)c(Cl)c1
T/C (dose: 100.0 mg/kg/injection, schedule: Q01DX001 (ip), vehicle: Klucel (hydroxypropylcellulose) (HPC)): 90 % of control and 104 % of control
T/C (dose: 100.0 mg/kg/injection, schedule: Q01DX009 (ip), vehicle: acetone): 112 % of control
T/C [1]: 93 % of control and 100 % of control
T/C (dose: 200.0 mg/kg/injection, schedule: Q01DX009 (ip), vehicle: acetone): 108 % of control
T/C [2]: 100 % of control and 106 % of control
T/C (dose: 400.0 mg/kg/injection, schedule: Q01DX009 (ip), vehicle: acetone): 95 % of control

Nc1nc(N)c2nc(/C=C/c3ccc4c(c3)OCO4)cnc2n1
T/C [3]: 88 % of control
T/C [4]: 88 % of control
T/C [5]: 88 % of control

O=C1NC(c2ccccc2)(c2ccccc2)C(=O)N1SC(Cl)(Cl)Cl
T/C (dose: 3.12 mg/kg/injection, schedule: Q01DX009 (ip), vehicle: Klucel (hydroxypropylcellulose) (HPC)): 123 % of control
T/C (dose: 6.25 mg/kg/injection, schedule: Q01DX009 (ip), vehicle: Klucel (hydroxypropylcellulose) (HPC)): 120 % of control
T/C (dose: 12.5 mg/kg/injection, schedule: Q01DX009 (ip), vehicle: Klucel (hydroxypropylcellulose) (HPC)): 120 % of control
T/C (dose: 25.0 mg/kg/injection, schedule: Q01DX009 (ip), vehicle: Klucel (hydroxypropylcellulose) (HPC)): 117 % of control
T/C (dose: 50.0 mg/kg/injection, schedule: Q01DX009 (ip), vehicle: Klucel (hydroxypropylcellulose) (HPC)): 106 % of control

COC(=O)C12OCC34C(CC5=C(C)C(=O)C(O)=CC5(C)C3C(O)C1O)OC(=O)C(OC(=O)c1ccccc1)C24 (centres undefined)
T/C (dose: 0.04 mg/kg/injection, schedule: Q01DX009 (ip), vehicle: saline + alcohol): 111 % of control
T/C (dose: 4.0 mg/kg/injection, schedule: Q01DX009 (ip), vehicle: saline + alcohol): 100 % of control

O=c1oc2ccccc2c2c1C(c1ccc3c(c1)OCO3)C=C(c1ccc3c(c1)OCO3)O2 (centres undefined)
T/C (dose: 12.5 mg/kg/injection, schedule: Q01DX009 (ip), vehicle: water): 97 % of control
T/C (dose: 25.0 mg/kg/injection, schedule: Q01DX009 (ip), vehicle: water): 104 % of control
T/C (dose: 25.0 mg/kg/injection, schedule: Q04DX003 (ip), vehicle: water): 113 % of control
T/C (dose: 50.0 mg/kg/injection, schedule: Q01DX009 (ip), vehicle: water): 101 % of control and 104 % of control
T/C (dose: 50.0 mg/kg/injection, schedule: Q04DX003 (ip), vehicle: water): 116 % of control
T/C (dose: 100.0 mg/kg/injection, schedule: Q01DX009 (ip), vehicle: water): 95 % of control
T/C (dose: 100.0 mg/kg/injection, schedule: Q04DX003 (ip), vehicle: water): 103 % of control
T/C (dose: 200.0 mg/kg/injection, schedule: Q01DX009 (ip), vehicle: water): 108 % of control and 123 % of control
T/C (dose: 200.0 mg/kg/injection, schedule: Q04DX003 (ip), vehicle: water): 102 % of control and 111 % of control
T/C (dose: 300.0 mg/kg/injection, schedule: Q01DX009 (ip), vehicle: water): 101 % of control
T/C (dose: 300.0 mg/kg/injection, schedule: Q04DX003 (ip), vehicle: water): 102 % of control
T/C (dose: 400.0 mg/kg/injection, schedule: Q01DX009 (ip), vehicle: water): 101 % of control
T/C (dose: 400.0 mg/kg/injection, schedule: Q04DX003 (ip), vehicle: water): 119 % of control and 120 % of control
T/C (dose: 500.0 mg/kg/injection, schedule: Q01DX009 (ip), vehicle: water): 118 % of control

COc1ccc(CNCCNCc2ccc(OC)c(OC)c2)cc1OC
T/C [6]: 115 % of control
T/C [7]: 105 % of control
T/C [8]: 110 % of control

CCCCCCCCCCCCNC(=O)CC(O)(CC(=O)O)C(=O)O (centres undefined)
T/C (dose: 25.0 mg/kg/injection, schedule: Q04DX003 (ip), vehicle: Klucel (hydroxypropylcellulose) (HPC)): 111 % of control
T/C (dose: 50.0 mg/kg/injection, schedule: Q04DX003 (ip), vehicle: Klucel (hydroxypropylcellulose) (HPC)): 88 % of control
T/C [9]: 92 % of control

COc1cc(Cc2nccc3cc(OC)c(OC)cc23)c(C(C)=O)cc1OC
T/C (dose: 8.0 mg/kg/injection, schedule: Q01DX009 (ip), vehicle: saline): 153 % of control
T/C (dose: 8.2 mg/kg/injection, schedule: Q01DX009 (ip), vehicle: saline sonified): 150 % of control
T/C (dose: 12.5 mg/kg/injection, schedule: Q01DX009 (ip), vehicle: saline sonified): 155 % of control
T/C (dose: 18.75 mg/kg/injection, schedule: Q01DX009 (ip), vehicle: saline sonified): 195 % of control

CCN(CC)CCNc1ccc(C)c2sc3ccccc3c(=O)c12 (tested in a mixture with another compound)
T/C (dose: 5.5 mg/kg/injection, schedule: Q01DX009 (ip), vehicle: saline): 100 % of control and 121 % of control
T/C (dose: 8.2 mg/kg/injection, schedule: Q01DX009 (ip), vehicle: saline): 90 % of control and 110 % of control
T/C (dose: 22.0 mg/kg/injection, schedule: Q01DX009 (ip), vehicle: saline): 122 % of control
T/C (dose: 33.0 mg/kg/injection, schedule: Q01DX009 (ip), vehicle: saline): 110 % of control
T/C (dose: 35.0 mg/kg/injection, schedule: Q01DX009 (ip), vehicle: saline): 116 % of control
T/C (dose: 50.0 mg/kg/injection, schedule: Q01DX009 (ip), vehicle: saline): 154 % of control
T/C (dose: 75.0 mg/kg/injection, schedule: Q01DX009 (ip), vehicle: saline): 154 % of control and 180 % of control
T/C (dose: 88.0 mg/kg/injection, schedule: Q04DX003 (ip), vehicle: saline): 122 % of control
T/C (dose: 100.0 mg/kg/injection, schedule: Q04DX003 (ip), vehicle: alcohol): 94 % of control
T/C (dose: 100.0 mg/kg/injection, schedule: Q04DX003 (ip), vehicle: saline): 116 % of control
T/C (dose: 200.0 mg/kg/injection, schedule: Q04DX003 (ip), vehicle: alcohol): 111 % of control
T/C (dose: 200.0 mg/kg/injection, schedule: Q04DX003 (ip), vehicle: saline): 166 % of control
T/C (dose: 300.0 mg/kg/injection, schedule: Q04DX003 (ip), vehicle: saline): 95 % of control
T/C (dose: 400.0 mg/kg/injection, schedule: Q04DX003 (ip), vehicle: alcohol): 111 % of control

CCCCCCCCCCSC#N
T/C (dose: 20.0 mg/kg/injection, schedule: Q04DX003 (ip), vehicle: saline): 87 % of control
T/C (dose: 40.0 mg/kg/injection, schedule: Q04DX003 (ip), vehicle: saline): 91 % of control
T/C (dose: 80.0 mg/kg/injection, schedule: Q04DX003 (ip), vehicle: saline): 91 % of control

COc1ccc2c(c1O)-c1cccc3c1[C@@H](C2)N(CCCl)CC3
T/C (dose: 25.0 mg/kg/injection, schedule: Q04DX003 (ip), vehicle: saline with Tween-80): 161 % of control
T/C (dose: 50.0 mg/kg/injection, schedule: Q04DX003 (ip), vehicle: saline with Tween-80): 161 % of control

O=C1OCC2CC3c4ccccc4C12c1ccccc13 (centres undefined)
T/C [1]: 105 % of control
T/C [2]: 95 % of control

CSc1ccc(NC(=O)NN(c2ccccc2)C2CCS(=O)(=O)C2)cc1 (centres undefined)
T/C [3]: 100 % of control
T/C [4]: 102 % of control
T/C [5]: 101 % of control

COC1=C(NCc2ccccc2)C(=O)C(OC)=C(NCc2ccccc2)C1=O
T/C (dose: 100.0 mg/kg/injection, schedule: Q01DX009 (ip), vehicle: Klucel (hydroxypropylcellulose) (HPC)): 90 % of control
T/C [9]: 95 % of control
T/C (dose: 200.0 mg/kg/injection, schedule: Q01DX009 (ip), vehicle: Klucel (hydroxypropylcellulose) (HPC)): 100 % of control
T/C (dose: 200.0 mg/kg/injection, schedule: Q04DX003 (ip), vehicle: Klucel (hydroxypropylcellulose) (HPC)): 86 % of control
T/C (dose: 400.0 mg/kg/injection, schedule: Q01DX009 (ip), vehicle: Klucel (hydroxypropylcellulose) (HPC)): 100 % of control
T/C (dose: 400.0 mg/kg/injection, schedule: Q04DX003 (ip), vehicle: Klucel (hydroxypropylcellulose) (HPC)): 95 % of control

CC1=C2CC[C@H]3[C@@H]4CC[C@H](O)[C@@]4(C)CC[C@@H]3[C@@]2(C)CCC1=O
T/C [6]: 95 % of control
T/C [7]: 95 % of control
T/C [8]: 100 % of control

Cn1c([N+](=O)[O-])cnc1/C=N/N1CCN(/N=C/c2ncc([N+](=O)[O-])n2C)CC1
T/C [3]: 101 % of control
T/C [4]: 113 % of control
T/C [5]: 94 % of control

Cc1n(CC(C)C)c2c([n+]1CC(=O)c1ccc([N+](=O)[O-])cc1)C(=O)c1ccccc1C2=O
T/C (dose: 1.25 mg/kg/injection, schedule: Q01DX010 (ip), vehicle: saline): 118 % of control
T/C (dose: 2.5 mg/kg/injection, schedule: Q01DX010 (ip), vehicle: saline): 122 % of control
T/C (dose: 5.0 mg/kg/injection, schedule: Q01DX010 (ip), vehicle: saline): 104 % of control
